Here are results for five compounds from patent US9701670B2, “Pyrazolyl-ureas as kinase inhibitors” (RESPIVERT LIMITED, priority 2013, dated 2017).

Series [1] has as its system β-catenin in d-U937 cells. Briefly: (m) Accumulation of β catenin in d-U937 cells. Type of series: cell-based, human. An outline of the steps: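 PMA-differentiated U937 macrophage-type cells (100 ng/mL, 48–72 hr) were exposed to test compound or vehicle for 18 hr, then fixed. β-catenin was measured by cell ELISA (HRP/TMB, OD450-655) and normalised to crystal violet OD595. Signals below 15% of the standard control were designated "-ve".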

The target in series [2] is Syk (Homo sapiens (Human), UniProt P43405). Briefly: Syk enzyme inhibition (FRET, Z-LYTE). Type of series: biochemical. The note with it: different laboratory (Table 4a2). The method, then: (§1) The enzyme inhibitory activities of compounds disclosed herein are determined by FRET using synthetic peptides labelled with both donor and acceptor fluorophores (Z-LYTE, Invitrogen Ltd., Paisley, UK).
The relevant enzyme (3000 ng/mL or 2000 ng/mL respectively, 2.5 μL) is incubated with the test compound (either 4 μg/mL, 0.4 μg/mL, 0.04 μg/mL, or 0.004 μg/mL, 2.5 μL each) for 2 hr at RT. The FRET peptides (8 μM, 2.5 μL), and appropriate ATP solutions (2.5 μL, 800 μM for c-Src, and 60 μM ATP for Syk) are then added to the enzymes/compound mixtures and incubated for 1 hr. Development reagent (protease, 5 μL) is added for 1 hr prior to detection in a fluorescence microplate reader (Varioskan® Flash, ThermoFisher Scientific).
(§2) In all cases, the site-specific protease cleaves non-phosphorylated peptide only and eliminates the FRET signal. Phosphorylation levels of each reaction are calculated using the ratio of coumarin emission (donor) over fluorescein emission (acceptor), for which high ratios indicate high phosphorylation and low ratios indicate low phosphorylation levels.

Series [3] concerns the target T1, p38 MAPKα isoform (MAPK14) (Homo sapiens (Human), UniProt Q16539). Briefly: p38 MAPKα enzyme inhibition (FRET, Z-LYTE), Method 1. Type of series: biochemical. The note with it: Method 1 (Table 4a1).
In series [4] the test system is Balb/c mice. Briefly: (A) LPS-induced neutrophil accumulation in mice. Type of series: in vivo, mouse. The following applies: mice, test substance at 0.2 mg/mL, dosed 8 hr pre-LPS challenge; for Neutrophil numbers in BAL: +/−SEM, N = 8. The method, then: […] At T=0, mice are placed into an exposure chamber and exposed to LPS (7.0 mL, 0.5 mg/mL solution in PBS) for 30 min). After a further 8 hr the animals are anesthetized, their tracheas cannulated and BALF extracted by infusing and then withdrawing from their lungs 1.0 mL of PBS via the tracheal catheter. Total and differential white cell counts in the BALF samples are measured using a Neubaur haemocytometer. Cytospin smears of the BALF samples are prepared by centrifugation at 200 rpm for 5 min at RT and stained using a DiffQuik stain system (Dade Behring). Cells are counted using oil immersion microscopy. Data for neutrophil numbers in BAL are shown as mean±S.E.M. (standard error of the mean). The percentage inhibition of neutrophil accumulation is calculated for each treatment relative to vehicle treatment.

Series [5] deals with Differentiated U937 cells. Briefly: (l) Cell viability: MTT assay. The following applies: 1 μg/mL. Type of series: cell-based, human. The procedure, abridged: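 Differentiated U937 cells were exposed to compound at 1 or 10 μg/mL either 4 h in 5% FCS RPMI1640 or 24 h in 10% FCS RPMI1640, then given MTT for 1 h, DMSO-solubilised and read at 550 nm. Percent viability loss versus 0.5% DMSO vehicle; apparent gains appear negative.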
(Tetrazolium dyes change colour on reduction, which living cells bring about.)

The target of series [6] is T1, p38 MAPKα isoform (MAPK14). Briefly: p38 MAPKα enzyme inhibition (FRET, Z-LYTE), Method 2. Type of series: biochemical. The note with it: Method 2, different laboratory (Table 4a2).
Series [7] has as its system HRV16. Briefly: (j) HRV16 induced CPE in MRC5 cells. Type of series: cell-based. The following applies: HRV-16. The method, then:
The supernatants are aspirated, and then fresh media added followed by incubation for 4 days. Where appropriate, cells are pre-incubated with compound or DMSO for 2 hr, and the compounds and DMSO added again after washout of the virus.
After washing, 1% SDS in distilled water (100 μL) is added to each well, and the plates are shaken lightly for 1-2 hr prior to reading the absorbance at 660 nm. The percentage inhibition for each well is calculated. The IC50 value is calculated from the concentration-response curve generated by the serial dilutions of the test compounds.

The nature of series [8]: Hepatic microsomal stability. Type of series: in vitro ADME. The note with it: scaled from intrinsic clearance, mean of two experiments. The method, then:
(§3) • Microsomal stability assays were performed with incubations of test compounds at 0.1 μM (n=2, final DMSO concentration 0.25%), and carried out using pooled human, dog and rat hepatic microsomes from Xenotech (Lots 1210153, 0810143 and 1110042, respectively) at 0.25 mg protein/mL in the presence of co-factor, NADPH. The incubations were performed at 37° C. with 100 μL aliquots taken from the incubation, at 0, 2, 5, 10 and 20 minutes and reactions terminated by addition of 100 μL of acetonitrile containing carbamazepine as analytical internal standard. […] Half-life values were calculated from the relationship T1/2(min)=−0.693/λ • where λ was the slope of the Ln concentration vs time curve. • The in vitro intrinsic clearance, CIint (mL/min/kg), was calculated and scaled to hepatic extraction ratios using the following scaling parameters and formulae.
(§4) Formulae CIint(tissue clearance) mL/min/kg=[0.693/t½(min)]×[1/microsomal protein concentration mg/mL]×[mg microsomes/g liver]×[g liver/kg body weight] […] The incubations were performed at 37° C. with 100 μL samples taken from the incubation, at 0, 10, 20, 45 and 90 minutes, and reactions terminated by addition of 100 μL of acetonitrile containing carbamazepine as analytical internal standard. […] Half-life values were calculated from the relationship T1/2(min)=−0.693/λ • where λ was the slope of the Ln concentration vs time curve. • Standard compounds testosterone, midazolam and 4-methylumbelliferone are included in the assay design.

Series [9] in a line: Cryopreserved hepatocyte stability. The following applies: scaled from intrinsic clearance, mean of two experiments. Type of series: in vitro ADME. The method, then:
as §4
CIint(Tissue Clearance) mL/min/kg=[0.693/t½(min)]×[1/hepatocyte concentration (million cells/mL)]×[million cells/g liver]×[g liver/kg body weight] CIint(Hepatic clearance) mL/min/kg=hepatic blood flow×CIint/(hepatic blood flow+CIint) Hepatic extraction ratio (Eh)=CIint(Hepatic clearance) mL/min/kg/hepatic blood flow (mL/min/kg)

A short description of series [10]: Hepatic microsomal stability. Type of series: in vitro ADME, human. The method, then:
as §3, §4

Series [11] has as its target T2, GSK 3α (Homo sapiens (Human), UniProt P49840). Briefly: GSK 3α enzyme inhibition (FRET, Z-LYTE), Method 2. Type of series: biochemical. The note with it: Method 2, different laboratory (Table 4a2); read-out: IC50 Values for Enzyme Inhibition GSK3α. The method, then:
as §1
(§5) The inhibitory activities of compounds of the invention against the GSK 3α enzyme isoform (Invitrogen), are evaluated by determining the level of activation/phosphorylation of the target peptide. The GSK3-α protein (500 ng/mL, 2.5 μL) is mixed with the test compound (2.5 μL at either 4 μg/mL, 0.4 μg/mL, 0.04 μg/mL, or 0.004 μg/mL) for 2 hr at RT. The FRET peptide (8 μM, 2.5 μL), which is a phosphorylation target for GSK3α, and ATP (40 μM, 2.5 μL) are then added to the enzyme/compound mixture and the resulting mixture incubated for 1 hr. Development reagent (protease, 5 μL) is added for 1 hr prior to detection in a fluorescence microplate reader (Varioskan® Flash, ThermoFisher Scientific).
as §2

In series [12] the target is T2, GSK 3α. Briefly: GSK 3α enzyme inhibition (FRET, Z-LYTE), Method 1. Type of series: biochemical. The following applies: Method 1 (Table 4a1); read-out: IC50 Values for Enzyme Inhibition GSK3α. The method, then: as §1, §5, §2
The test system of series [13] is HCK. Briefly: Enzyme binding assay (Kinomescan). The method, then:
These assays were conducted by DiscoverX (formerly Ambit; San Diego, Calif.). The percentage inhibition produced by incubation with a test compound is calculated relative to the non-inhibited control.

Each structure is given as a SMILES string. Bounds are passed on as bounds.

T1 sequence (Q16539 whole entry, canonical isoform): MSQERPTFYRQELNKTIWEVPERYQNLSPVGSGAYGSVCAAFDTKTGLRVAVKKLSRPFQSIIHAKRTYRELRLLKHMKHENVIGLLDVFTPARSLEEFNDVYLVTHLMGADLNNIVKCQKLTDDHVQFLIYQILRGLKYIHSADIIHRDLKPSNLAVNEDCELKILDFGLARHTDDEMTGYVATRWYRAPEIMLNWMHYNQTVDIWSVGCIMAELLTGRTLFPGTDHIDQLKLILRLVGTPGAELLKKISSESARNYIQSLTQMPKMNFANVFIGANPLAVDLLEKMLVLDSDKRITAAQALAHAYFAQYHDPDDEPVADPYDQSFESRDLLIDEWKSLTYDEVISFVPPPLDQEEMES
T2 sequence (P49840 whole entry): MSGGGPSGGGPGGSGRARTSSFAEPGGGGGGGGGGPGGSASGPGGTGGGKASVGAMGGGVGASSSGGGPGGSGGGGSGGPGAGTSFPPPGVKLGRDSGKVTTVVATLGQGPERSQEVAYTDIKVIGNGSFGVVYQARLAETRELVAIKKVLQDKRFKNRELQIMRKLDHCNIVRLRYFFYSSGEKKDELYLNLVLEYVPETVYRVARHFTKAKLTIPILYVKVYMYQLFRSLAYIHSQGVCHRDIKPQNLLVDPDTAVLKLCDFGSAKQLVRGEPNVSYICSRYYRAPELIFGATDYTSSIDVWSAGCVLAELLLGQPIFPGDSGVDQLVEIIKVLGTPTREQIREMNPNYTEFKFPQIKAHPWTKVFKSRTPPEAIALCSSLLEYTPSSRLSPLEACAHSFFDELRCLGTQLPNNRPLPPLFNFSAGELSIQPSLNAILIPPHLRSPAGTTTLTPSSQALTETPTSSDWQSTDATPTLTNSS

The term IC50 denotes the concentration at which inhibition is half-maximal. On to `COc1cc(Nc2nccc(Oc3ccc(NC(=O)Nc4cc(C(F)(F)C(F)(F)F)nn4-c4ccc(C)cc4)c4ccccc34)n2)cc(C(=O)NCCN2CCOCC2)c1` [Example 9, 3-Methoxy-N-(2-morpholinoethyl)-5-((4-((4-(3-(3-(perfluoroethyl)-1-(p-tolyl)-1H-pyrazol-5-yl)ureido)naphthalen-1-yl)oxy)pyrimidin-2-yl)amino)benzamide], for which the “β-catenin inductive effect relative to the effect produced by the Reference Compound at 1 μg/mL” value in series [1] (test concentration of 10 μg/mL, found to be negative) is “less than 15%”. The IC50 is 43 nM in series [2], 49 nM in series [3] and 174 nM in [6]. In addition, the “% inhibition of neutrophil numbers in BAL” value in series [4] worked out at 51%. Further, the “Neutrophil numbers in BAL” value in series [4] was 8.0 ± 1.6 ×10^5/mL. In [5], the “Cell viability at time point in d-U937 cells 4 h” value is “−ve (−ve and +ve indicate that the value is below and above respectively, the no significant effect threshold, defined as 30% inhibition at 1 μg/mL at the time point indicated.)”. Moreover, the “Cell viability at time point in d-U937 cells 24 h” value in [5] was “−ve (−ve and +ve indicate that the value is below and above respectively, the no significant effect threshold, defined as 30% inhibition at 1 μg/mL at the time point indicated.)”.
With `COc1ccc(-n2nc(C(C)C)cc2NC(=O)Nc2ccc(Oc3ccnc(Nc4cc(OC)cc(C(=O)NCCN5CCOCC5)c4)n3)c3ccccc23)cc1` [Example 53, 3-((4-((4-(3-(3-isopropyl-1-(4-methoxyphenyl)-1H-pyrazol-5-yl)ureido)naphthalen-1-yl)oxy)pyrimidin-2-yl)amino)-5-methoxy-N-(2-morpholinoethyl)benzamide], the IC50 in [3] came out at 2 nM; in [7], 2 nM; in series [6] it was 37 nM. Besides, the “Cell viability at time point in d-U937 cells 4 h” value in series [5] was “−ve (−ve and +ve indicate that the value is below and above respectively, the no significant effect threshold, defined as 30% inhibition at 1 μg/mL at the time point indicated.)”. Moreover, in [5], the “Cell viability at time point in d-U937 cells 24 h” value is “−ve (−ve and +ve indicate that the value is below and above respectively, the no significant effect threshold, defined as 30% inhibition at 1 μg/mL at the time point indicated.)”.
`C#Cc1cc(Nc2nccc(Oc3ccc(NC(=O)Nc4cc(C(C)(C)C)nn4-c4ccc(N(C)C)cc4)c4ccccc34)n2)cc(C(=O)NCCN2CCOCC2)c1` [Example 80, 3-((4-((4-(3-(3-(tert-Butyl)-1-(4-(dimethylamino)phenyl)-1H-pyrazol-5-yl)ureido)naphthalen-1-yl)oxy)pyrimidin-2-yl)amino)-5-ethynyl-N-(2-morpholinoethyl)-benzamide]: the “% β-catenin induction” value was found to be 14% in series [1] (1 μg/mL test compound) and 8% in series [1] (5 μg/mL test compound). Also, the “Mean hepatic extraction ratio (Eh)” value in [8] (dog hepatic microsomes) is recorded as 0.91; in [8] (rat hepatic microsomes), 0.77; in series [9] (dog hepatocytes), 0.73; in series [9] (human hepatocytes) it was <0.61; in series [9] (rat hepatocytes), <0.44; in [10] (human hepatic microsomes, scaled from intrinsic clearance, mean of two experiments) it was 0.93. For the same compound, the values for the IC50 in series [6] and in series [11] were 437 nM and 12600 nM, respectively. Further, the hepatic clearance result in [10] (conclusion from Tables 9a and 9b (hepatic microsomes and hepatocytes)) is recorded as “high hepatic clearance”.
With `COc1cc(Nc2nccc(Oc3ccc(NC(=O)Nc4cc(C(C)C)nn4-c4ccc(C)cc4)c4ccccc34)n2)cc(C(=O)NCCO)c1` [Example 63, N-(2-hydroxyethyl)-3-((4-((4-(3-(3-isopropyl-1-(p-tolyl)-1H-pyrazol-5-yl)ureido)naphthalen-1-yl)oxy)pyrimidin-2-yl)amino)-5-methoxybenzamide], the IC50 in series [12] came out at 13000 nM. Half-maximal inhibition in [3] (IC50) required 45 nM. Further, in [5], the “Cell viability at time point in d-U937 cells 4 h” value is “−ve (−ve and +ve indicate that the value is below and above respectively, the no significant effect threshold, defined as 30% inhibition at 1 μg/mL at the time point indicated.)”; the “Cell viability at time point in d-U937 cells 24 h” value was “−ve (−ve and +ve indicate that the value is below and above respectively, the no significant effect threshold, defined as 30% inhibition at 1 μg/mL at the time point indicated.)”.
In the case of `COCC(=O)Nc1cc(Oc2ccc(NC(=O)Nc3cc(C(C)(C)C)nn3-c3ccc(C)cc3)c3ccccc23)ccn1` [Reference Compound, N-(4-(4-(3-(3-tert-butyl-1-p-tolyl-1H-pyrazol-5-yl)ureido)naphthalen-1-yloxy)pyridin-2-yl)-2-methoxyacetamide, reference compound], the “% Inhibition of kinase binding at 500 nM HCK” value in series [13] amounted to 100%. The “% β-catenin induction” value in series [1] (1 μg/mL test compound) is reported as 208%. Besides, in [4], the “% inhibition of neutrophil numbers in BAL” value is recorded as 60% and the “Neutrophil numbers in BAL” value is reported as 5.6 ± 0.86 ×10^5/mL. In addition, in series [5], the “Cell viability at time point in d-U937 cells 4 h” value is “−ve (−ve and +ve indicate that the value is below and above respectively, the no significant effect threshold, defined as 30% inhibition at 1 μg/mL at the time point indicated.)”; the “Cell viability at time point in d-U937 cells 24 h” value was “+ve (−ve and +ve indicate that the value is below and above respectively, the no significant effect threshold, defined as 30% inhibition at 1 μg/mL at the time point indicated.)”.
